Measured values reported in patent publication US20030208035A1, “Antifungal and/or antibacterial peptides, preparation methods, compositions containing same and methods of treating mammals and/or plants” (priority 2000, published 2003).
Bridges are numbered along the chain shown (N, C = ends). Where no end group is shown, it is not given here.

What was measured:
[1] = system: Candida albicans; experiment: anti-Candida albicans growth inhibition test in liquid medium (96-well microplates); format: cell-based; settings: fold relative to Ard1
Protocol: (§1) The anti-Candida albicans and anti-Aspergillus fumigatus activities of the different analogues were assessed using a growth inhibition test in liquid medium made in 96-well microplates. The activity of the purified peptides was tested for different dilutions of each peptide and was compared with those of heliomycin and Ard1 quantified under the same conditions.
The activity test was made directly on yeasts derived from a stock frozen at −80° C., in Sabouraud medium containing 15% glycerol. The density of the yeasts in the stock was adjusted to an optical density of 0.4 OD at 600 nm. After slow thawing at room temperature, the yeast suspension was reduced by dilution to an optic density of 1 mOD at 600 nm in Sabouraud medium, and 90 μl of this dilution were deposited in the wells of microtitration plates in the presence of 10 μl of sample to be tested. Control samples were systematically made in which 10 μl of sample were replaced by 10 μl of sterile water. Media sterility was controlled by incubating 10 μl sterile water in the presence of 90 μl of medium. The samples were incubated at 30° C. for 40 h under slight stirring and the antifungal activity was quantified by measuring optic density at 600 nm.

[2] = system: Neurospora crassa; format: cell-based; settings: 48 h
Protocol: (§2) 100 μl of peptide dilutions (concentration 50 with 0.097 mg/ml peptide) were deposited in microtitration plates.
(§3) After adding 100 μl of frozen spores with 10^4 spores/ml of A. brassicola and N. crassa (donated by Dr. Bullet, IBMC, Strasbourg) the test plates were incubated 48 h at 30° C.
(§4) Determination of minimal inhibiting concentrations (MIC) was made by observing well cover rate. The MIC was set at 50% well covering.

[3] = system: Alternaria brassicola; format: cell-based; settings: 48 h
Protocol: as §2, §3, §4

[4] = system: A. flavus; format: cell-based
Protocol: (§5) The antifungal activity was detected by a growth inhibition test in a liquid medium.
(§6) The filamentous fungi (A. fumigatus, A. flavus and A. terreus, donated by Dr. H. Koenig, Hôpital Civil, Strasbourg; and S. prolificans and F. solani donated by Drs. J. Meis and J. Mouton, University hospital, Microbioolgy Department, Nijmegen, Netherlands) were seeded on Malt-Agar slant gelose (Biomerieux) and incubated 7 days at 37° C.
(§7) The spores were then collected with 10 ml YPG medium containing 0.05% Tween 20 and filtered through a gauze. The spores were centrifuged 10 min at 1700 rpm, the residue was collected in YPG (1 g Yeast extract, 1 g Peptone, 3 g Glucose per 1 l).
(§8) The suspension was counted with a Coverslide and adjusted to 10^4 spores/ml.
(§9) 100 μl of peptide dilutions (concentration of 50 with 0.097 μg/ml peptide) were deposited in microtitration plates. 100 μl with 10^4 spores/ml of filamentous fungi, i.e. 1000 spores, were then added.
(§10) The test plates were incubated 48 h at 37° C.
(§11) Determination of minimum inhibiting concentrations (MIC) was made by observing well cover rate. The MIC score was set at 50% well covering.

[5] = system: A. terreus; format: cell-based
Protocol: as §5, §6, §7, §8, §9, §10, §11

[6] = system: Candida albicans (IHEM 8060 strain); experiment: Candida albicans infected model, lethal in mice (disseminated candidiasis); format: in vivo; settings: for mice alive on day 7 (out of 10): placebo 5 alive; for time of onset of the 1st death: placebo day 2.5; for morbidity score up to post-infection day 5 / median mortality, post-infection day / delay of onset of the 1st death / effect on mouse survival relative to placebo treatment: 5 mg/kg; for morbidity score up to post-infection day 5: placebo 1/50; for median mortality, post-infection day: placebo day 4; for delay of onset of the 1st death: placebo first deaths 2.5 days; for effect on mouse survival relative to placebo treatment: 3.10^6 CFU, three i.v. injections, 10 mice of 15 g
Protocol: Heliomycin and its analogues were tested for in vivo antifungal activity in a model infected with Candida albicans, lethal in mice. The pathogenic agent Candida albicans (IHEM 8060 strain) was inoculated by intravenous route (i.v.) at a dose of 2.5×10^6 CFU/mouse. the peptides were administered by i.v. route in 4 injections 6 h, 24 h, 48 h and 72 h after infection. Assessment criteria for activity were evaluation of survival and morbidity at 7 days. The morbidity scores, which take into account general state of health (condition of fur, mobility, hydration) were determined for each mouse with values ranging from 0 to 5 and defined below: 0=dead, 1=moribund, 2=very ill, 3=ill, 4=slightly ill, 5=healthy. The sum of the individual scores was calculated for each group, a score of 50 for a group of 10 mice meaning that all the mice were healthy.
Following a standard protocol, groups of 10 Swiss OF1 male mice weighing 12 g were infected via i.v. route with a dose of 2.5×10^6 CFU/mouse. Heliomycin and Ard1 were administered by i.v. route in 4 injections, 6 h, 24 h, 48 h and 72 h after infection. For each peptide, 2 doses were tested: 10 mg/kg and 30 mg/kg. A placebo group was injected with peptide solvent, 0.9% sodium chloride.
In this experiment, inoculation of the mice with 2.5.10^6 CFU/mouse was 50% lethal at day 5 in the group which received placebo treatment. The first deaths occurred on post-infection day 2.5 and median mortality occurred on post-infection day 5. On day 7, 5 mice were alive and the morbidity score 15/50.
In this experiment, inoculation of Swiss OF1 mice weighing 15 g with 3.10^6 CFU of Candida albicans induces 50% mortality on day 4 after infection in the group treated with the placebo. The first deaths occur 2.5 days after infection, and 100% of the mice were dead on day 5.5.
In this experiment, inoculation of the mice with 2.5.10^6 CFU/mouse was 50% lethal at day 5 and 100% at day 8 for mice in the placebo group. The first death occurred 3 days after infection. The morbidity score fell rapidly below 30/50 (25/50 at day 2.5).
The pEM35 peptide was administered at doses of 10 and 30 mg/kg/injection with 3 daily doses for 4 days (1 h, 5 h and 10 h post-infection on day 0; at 8 h, 14 h and 20 h on days 1, 2 and 3), i.e., daily doses totalling 30 and 90 mg/kg.

[7] = system: Aspergillus fumigatus; experiment: anti-Aspergillus fumigatus growth inhibition test in liquid medium (96-well microplates); format: cell-based; settings: fold relative to Ard1
Protocol: as §1
The spores of Aspergillus fumigatus were derived from a stock frozen at −80° C., containing 10^7 spores/ml in a 25% glycerol solution. After slow thawing at room temperature, the spores were placed in suspension in PDB culture medium (12 g Potato Dextrose Broth medium, per […] water). 10 μl of each sample were deposited in the wells of microtitration plates in the presence of 90 μl PDB culture medium supplemented with tetracycline (100 μg/ml) and cefotaxime (1 μg/ml) containing the spores (at a final concentration of 1000 spores/well). Control cultures were systematically made in which 10 μl of sample were replaced by 10 μl of sterile water. Media sterility was controlled by incubating 10 μl sterile water in the presence of 90 μl of medium. The samples were incubated at 37° C. for 24 h to 48 h in a humid atmosphere, and the antifungal activity was quantified by a score of 0 to 9 taking germination account; the size and morphology of the hyphs were determined under the binocular microscope. […].

Sequence | Activity C.a. (relative activity in relation to Ard1) [1] | MIC [2] [µg/mL] | MIC [3] [µg/mL] | MIC [4] [µg/mL] | MIC [5] [µg/mL] | survival rate on post-infection day 8 ([6]; FIG. 8, 30 mg/kg/day (10 mg/kg/injection, 3 daily, 4 days), placebo 100% lethal day 8) [%] | survival rate on post-infection day 8 ([6]; FIG. 8, 90 mg/kg/day (30 mg/kg/injection, 3 daily, 4 days)) [%] | morbidity score on day 8 ([6]; FIG. 8, 30 and 90 mg/kg/day) | morbidity score until day 7 ([6]; FIG. 8, 30 and 90 mg/kg/day) | activity compared with Ard1 ([6]; FIGS. 4-5, 10 mg/kg) | mice alive on day 7 (out of 10) ([6]; FIGS. 4-5, 10 mg/kg) [mice] | time of onset of the 1st death ([6]; FIGS. 4-5, 10 mg/kg) [days] | morbidity score up to post-infection day 5 ([6]; FIGS. 6-7) | median mortality, post-infection day ([6]; FIGS. 6-7) [days] | delay of onset of the 1st death ([6]; FIGS. 6-7) [days] | Activity A.f. (relative activity in relation to Ard1) [7] | effect on mouse survival relative to placebo treatment ([6]; FIGS. 6-7) | morbidity score maintained for 5 days ([6]; FIGS. 4-5, 10 mg/kg) | effectiveness in the candidiasis infected model ([6]; FIGS. 6-7, dose 5 mg/kg)
DKLIGSCVWGAVNYTSNCNAECKRRGYKGGHCGSFLNVNCWCET (disulfide 7-32, 18-40, 22-42 (inferred)) [pEM35] | 4 | <0.048 | >25 | 3.125 | 6.25 | 80 | 90 | 30/50 | above 40/50 | more active than Ard1 | 9 | 7 | 28/50 | 6 | 1.5 | 2-4 |  |  | 
DKLIGSCVWGAVNYTSNCNAECKRRGYKGGHCGSFLNVNCWCQT (disulfide 7-32, 18-40, 22-42 (inferred)) [pEM46] | 4-8 | 0.195 | 25 |  | 6.25 |  |  |  |  |  |  |  |  |  |  | 6-8 | does not significantly increase mouse survival |  | 
DKLIGSCVWGAVNYTSNCRAECKRRGYKGGHCGSFANVNCWCET (disulfide 7-32, 18-40, 22-42 (inferred)) [pEM51] | 2-4 | 0.195 | >25 | 6.25 | 3.125 |  |  |  |  |  |  |  | 11/50 | 5 | 1.5 | 1 |  |  | 
DKLIGSCVWGAVNYTSNCNAECKRRGYKGGHCGSFANVNCWCQT (disulfide 7-32, 18-40, 22-42 (inferred)) [pEM31] | 2 | <0.048 | >25 | >25 |  |  |  |  |  | more active than Ard1 | 8 | 5.5 |  |  |  | 4-8 | does not significantly increase mouse survival | higher than 40/50 | not effective
